# From patent US12295973B2 (Fred Hutchinson Cancer Center, priority 2017, dated 2025)
# Where a SMILES comes first, the peptide text is derived from it. [ ]: non-standard residue; d: D form. The star is where a group is joined. dPhe(4-NHCONH2) = NC(=O)Nc1ccc(C[C@@H](N)C(=O)O)cc1; Dihydroorotyl(S) = O=C1C[C@@H](C(=O)*)NC(=O)N1; dPhe(4-Cl) = N[C@H](Cc1ccc(Cl)cc1)C(=O)O; Phe(4-NH2) = Nc1ccc(C[C@H](N)C(=O)O)cc1; d2Nal = N[C@H](Cc1ccc2ccccc2c1)C(=O)O; Lys(iPr) = CC(C)NCCCC[C@H](N)C(=O)O; d3Pal = N[C@H](Cc1cccnc1)C(=O)O
# Columns and labels:
# [1] = system: hematopoietic stem and progenitor cell (HSPC) compartment; assay: Bone marrow analysis of the HSPC compartment after L-TBI (cellularity, flow cytometry); assay type: in vivo, mouse
# Method: To investigate the specific regenerative effects mediated by LHRH-Ant treatment on the hematopoietic stem and progenitor cell (HSPC) compartment, BM were analyzed at several time points after L-TBI. […] To determine hematopoietic functional potential, colony-forming unit activity was next quantified to determine the effects of LHRH-Ant on the recovery of committed hematopoietic progenitor cells. […] Consistent with these functional findings, on day 14 after L-TBI, expansion of LSKs as well as their downstream progenitors in mice given LHRH-Ant were found (FIGS. 2F, 2G). […] However, given the changes in HSC phenotype after radiation, the standard competitive repopulation functional assay was adapted to evaluate the presence and relative quantity of functional HSCs after L-TBI. Specifically, all cells from the BM and spleen (to account for potential changes to circulating HSCs) were collected and transplanted from vehicle or LHRH-Ant treated mice at day 14 after L-TBI into irradiated hosts (along with a rescue dose of congenic WBM cells to ensure survival). This approach allowed detection of differences in the total number of residual HSCs which would be reflected by a functional difference in hematopoietic reconstitution.
# Flow cytometry and cell cycle analysis: Monoclonal antibodies recognizing the following markers were used for flow cytometric analyses and cell sorting of murine cells (LSR II or FACSAria III, BD Biosciences): (from BD Pharmingen) c-kit (2B8), Sca-1 (D7), CD11b (M1/70), CD11c (HL3), CD19 (ID3), CD3ϵ (145-2C11), CD34 (RAM34), CD45 (30-F11), CD45.1 (A20), CD45.2 (104), CD48 (HM48-1), CD62L (MEL-14), CD135 (A2F10.1), Gr-1 (RB6-8C5), NK1.1 (PK136), TER-119 (TER-119); (from eBioscience) CD127 (A7R34), CD150 (mShad150); (from Invitrogen) B220 (RA3-6B2) and streptavidin (N/A). The mouse lineage antibody cocktail included anti-CD3, anti-CD4, anti-CD8α, anti-CD19, anti-CD11 b, anti-CD11c, anti-Gr-1, anti-NK1.1, and anti-TER119. The following antibodies were used for flow cytometry analyses of human samples, CD49f (eBioGoH3), CD45RA (L48), CD34 (581), CD38 (HIT2). CD90 (5E10), CD10 (H110a). The human lineage antibody cocktail included anti-CD3, anti-CD14, anti-CD16, anti-CD19, anti-CD20, anti-CD56. To detect human LHCGR a polyclonal anti-LHCGR (Alomone, cat #:ALR-010) was used. For intracellular Ki67/DAPI staining, BM cells were stained with surface markers, fixed, and permeabilized using the Fixation/Permeabilization kit (cat. 00552100 ebioscience) and permeabilization buffer (cat. 008333 ebioscience). Cells were then incubated with Ki67-Alexa 700 (B56) (from BD Biosciences) for 45 minutes at 4C. After centrifugation DAPI (5 μg/ml) was added to cells and allowed to incubate for at least 30 min at RT before analysis. […]
# [2] = system: LT-HSCs; assay: Cell cycle status of LT-HSCs in Poly I:C and SL-TBI models, surgically castrated mice; assay type: in vivo, mouse
# Method: To further validate this hypothesis, two additional models were used to force HSCs out of their quiescence phase, Poly I:C and sub-lethal dose of total body irradiation (SL-TBI)^35,42,43. To eliminate any potential effects of downstream sex steroids on HSCs, all cohorts of mice in these studies had been surgically castrated.
# Reagents: Degarelix (as acetate), a LHRH-Ant (Firmagon), was resuspended in sterile water for injection and administered S.C. to mice at a dose of 40 mg/kg. To evaluate the radiomitigative effect of LHRH-Ant on survival, mice were treated subcutaneously (S.C.) with a single injection of the LHRH-Ant or a saline control solution (PBS). Degarelix was purchased from the Memorial Sloan-Kettering Cancer Center Pharmacy. […] LH from human pituitary (SIGMA) was resuspended in PBS for in vitro studies. MDV3100 (selleckchem) was resuspended in a mixture of 45% PBS, 45% PEG and 10% DMSO and administered daily to mice by oral gavage at a dose of 10 mg/kg. 5-FU (InvivoGen) was administered to mice intraperitoneally (I.P.) at a dose of 150 mg/kg once every 7 days consecutively for 3 times as previously described^34,47,49. […]
structure (smiles),measurement,setting,value
"CC(=O)N[C@H](Cc1ccc2ccccc2c1)C(=O)N[C@H](Cc1ccc(Cl)cc1)C(=O)N[C@H](Cc1cccnc1)C(=O)N[C@@H](CO)C(=O)N[C@@H](Cc1ccc(NC(=O)[C@@H]2CC(=O)NC(=O)N2)cc1)C(=O)N[C@H](Cc1ccc(NC(N)=O)cc1)C(=O)N[C@@H](CC(C)C)C(=O)N[C@@H](CCCCNC(C)C)C(=O)N1CCC[C@H]1C(=O)N[C@H](C)C(N)=O [LHRH-Ant, Degarelix] (Ac-[d2Nal][dPhe(4-Cl)][d3Pal]S[Phe(4-NH2)](Dihydroorotyl(S))[dPhe(4-NHCONH2)]L[Lys(iPr)]P[dA]-NH2)",total BM cellularity,"[1]; day 7 after L-TBI, vs vehicle",no difference
same,LSKs and their downstream progenitors,[1]; day 14 after L-TBI,expansion
same,LT-HSCs number,[1]; day 14 after L-TBI,significantly more LT-HSCs
same,BM cellularity,"[1]; day 14 after radiation, vs vehicle",started to separate significantly from the vehicle group by day 14
same,LT-HSCs in G0,[2]; Poly I:C model,retained significantly more LT-HSCs in G0
same,LT-HSCs in G0,[2]; SL-TBI model,retained significantly more LT-HSCs in G0
